Test system: CD8+ T cells
Experiment: In vitro priming of CD8+ T cells with aAPCs (pHLA/anti-CD28) and pHLA multimer staining
Assay type: cell-based, human
Method: To perform in vitro stimulations by artificial antigen-presenting cells (aAPCs) loaded with peptide-HLA complexes (pHLA) and anti-CD28 antibody, the inventors first isolated CD8+ T cells via positive selection using CD8 microbeads (Miltenyi Biotec, Bergisch-Gladbach, Germany) from fresh HLA-matched leukapheresis products of healthy donors obtained from the University clinics Mannheim, Germany, after informed consent.
PBMCs and isolated CD8+ lymphocytes were incubated in T cell medium (TCM) until use consisting of RPMI-Glutamax (Thermo Fisher Scientific, Waltham, USA) supplemented with 10% heat-inactivated human AB serum (CC Pro, Oberdorla, Germany), 100 U/ml Penicillin/100 μg/ml Streptomycin (Biozym, Hessisch Oldendorf, Germany), 1 mM sodium pyruvate (CC Pro, Oberdorla, Germany) and 20 μg/ml Gentamycin (Biozym, Hessisch Oldendorf, Germany). 2.5 ng/ml IL-7 (PromoCell, Heidelberg, Germany) and 10 U/ml IL-2 (Novartis Pharma, Nürnberg, Germany) were also added to the TCM at this step.
The purified co-stimulatory mouse IgG2a anti human CD28 Ab 9.3 (Jung et al., 1987) was chemically biotinylated using sulfo-N-hydroxysuccinimidobiotin as recommended by the manufacturer (Perbio, Bonn, Germany). Beads used were 5.6 μm diameter streptavidin coated polystyrene particles (Bangs Laboratories, Illinois, USA).
800.000 beads/200 μl were coated in 96-well plates in the presence of up to four different biotinylated pHLA complexes (total amount 50 ng/well), washed and 600 ng biotinylated anti-CD28 were added subsequently in a volume of 200 μl/well.
Stimulations were initiated in 96-well plates by co-incubating 1×10^6 CD8+ T cells with 2×10^5 washed aAPCs in 200 μl TCM supplemented with 5 ng/ml IL-12 (PromoCell) for 3 days at 37° C. Half of the medium was then exchanged by fresh TCM supplemented with 80 U/ml IL-2 and incubation was continued for 4 days at 37° C. This stimulation cycle was performed for a total of three times. […]
For the pHLA multimer readout using up to eight different pHLA molecules per condition, a two-dimensional combinatorial coding approach was used as previously described (Andersen et al., 2012a; Andersen et al., 2012b) with minor modifications encompassing coupling to 5 different fluorochromes.
Finally, multimeric analyses were performed by staining the cells with Live/dead near IR dye (Thermo Fisher Scientific, Waltham, USA), CD8-FITC antibody clone SK1 (BD, Heidelberg, Germany) and fluorescent pHLA multimers. […] Peptide-specific cells were calculated as percentage of total CD8+ cells. […] In vitro priming of specific multimer+CD8+ lymphocytes was detected by comparing to negative control stimulations.

KILGFVF(X)V [FLUM-003] was tested, and the “Presence of peptide specific cells by multimer staining (standard refolded multimers)” value (after stimulation with A*02:01_FLUM-003×MLA-001, FIG. 3 C+D) was “confirmed the presence” and the “Detection of conditional ligand specific cells by multimer staining with EC monomers from the same UV monomer” value (priming with HLA-A*02_FLUM-003×CMV-001, FIG. 6 Plate B, stimulation position 1 and 2) was “FLUM-003 specific cells were stimulated and detected”.
For RL(X)VGSIPR [HNRNPR-002], the “UV peptide-specific T cell populations (multimer+ cells among CD8+ cells)” value (stimulated with pHLA obtained after UV exchange A*03:01_HNRNPR-002×HADV-014 (residual UV monomer), three cycles, FIG. 5 B) was 6.7 % of CD8+ cells.
With SARPPL(X)SV [MUDENG-002] the “UV peptide-specific T cell populations (multimer+ cells among CD8+ cells)” value (stimulated with standard refolded pHLA B*07:02_MUDENG-002, three cycles of stimulation, FIG. 5 A) was 2.4 % of CD8+ cells.

Source: patent US20240358831A1, “SELECTION OF IMMUNE CELLS USING PEPTIDE MHC COMPLEXES GENERATED BY CONDITIONAL LIGAND EXCHANGE” (IMMATICS US, INC., priority 2021, published 2024)
